Consider 15 molecules from patent publication US12122778B2, “Activating pyruvate kinase R” (Novo Nordisk Health Care AG, priority 2018, dated 2024).

One assay has as its target PKR(G332S) (Homo sapiens, UniProt P30613, G332S). In words: Luminescence Biochemical Assay (Kinase Glo Plus), PKR G332S mutant. To be noted: with FBP; for activation at 1.54 µM: 1.54 μM compound, read-out: AC50 LUM KGP FBP % Fold@1.54 μM mean; for AC50: read-out: AC50 LUM KGP FBP AC50 μM gmean (column A); for Emax: read-out: AC50 LUM KGP FBP MAX % FOLD mean. (In general: In Kinase-Glo more light means more ATP remaining.)

The target of a further assay is PKR(R510Q) (Homo sapiens, UniProt P30613, R510Q). In words: Luminescence Biochemical Assay (Kinase Glo Plus), PKR R510Q mutant. To be noted: without FBP; for activation at 1.54 µM: 1.54 μM compound, read-out: AC50 LUM KGP woFBP % Fold@1.54 μM mean; for AC50: read-out: AC50 LUM KGP woFBP AC50 μM gmean; for Emax: read-out: AC50 LUM KGP woFBP MAX % FOLD mean.
The target in the next assay is PKR(wt) (Homo sapiens, UniProt P30613). In words: Luminescence Biochemical Assay (Kinase Glo Plus), wild type PKR. The conditions noted are these: without FBP; for activation at 1.54 µM: 1.54 μM compound, read-out: AC50 LUM KGP woFBP % Fold@1.54 μM mean; for AC50: read-out: AC50 LUM KGP woFBP AC50 μM gmean; for Emax: read-out: AC50 LUM KGP woFBP MAX % FOLD mean.
Chain of PKR(wt) (P30613 whole entry): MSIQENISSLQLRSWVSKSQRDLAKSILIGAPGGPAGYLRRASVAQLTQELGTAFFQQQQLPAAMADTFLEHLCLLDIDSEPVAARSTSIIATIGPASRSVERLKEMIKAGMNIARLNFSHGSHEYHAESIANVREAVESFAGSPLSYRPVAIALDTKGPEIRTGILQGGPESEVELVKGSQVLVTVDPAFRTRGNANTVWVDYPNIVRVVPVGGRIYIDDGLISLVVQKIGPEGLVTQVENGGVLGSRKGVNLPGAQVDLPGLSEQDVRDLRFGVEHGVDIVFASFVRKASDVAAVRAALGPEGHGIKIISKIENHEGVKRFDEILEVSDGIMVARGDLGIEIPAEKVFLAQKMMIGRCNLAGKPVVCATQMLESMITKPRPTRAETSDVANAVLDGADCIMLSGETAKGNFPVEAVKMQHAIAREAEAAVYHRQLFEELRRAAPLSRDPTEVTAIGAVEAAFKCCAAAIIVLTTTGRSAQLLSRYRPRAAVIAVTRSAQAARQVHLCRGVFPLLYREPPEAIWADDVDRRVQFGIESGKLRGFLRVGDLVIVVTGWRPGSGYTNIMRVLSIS

Chain of PKR(R510Q) (P30613 whole entry R510Q): as the sequence (P30613 whole entry) above, with R510Q counted along it
Chain of PKR(G332S) (P30613 whole entry G332S): as the sequence (P30613 whole entry) above, with G332S counted along it

Turning to `O=C([C@H](O)c1ccc(F)cc1)N1CC2=C(C1)CN(S(=O)(=O)c1ccccn1)C2` [Example 18-63, (2R)-2-(4-fluorophenyl)-2-hydroxy-1-[5-(pyridine-2-sulfonyl)-1H,2H,3H,4H,5H,6H-pyrrolo[3,4-c]pyrrol-2-yl]ethan-1-one], at PKR(G332S), the activation at 1.54 µM was 75 to 250%, the AC50 is 1 to 40 µM and the Emax is 75 to 250%. For the same molecule, at PKR(R510Q), the activation at 1.54 µM was in the range of 250 to 50000%, the AC50 was in the range of 0.1 to 1 µM and the Emax is 250 to 500%. Also, on PKR(wt), the activation at 1.54 µM was in the range of 75 to 250%, the AC50 lay in the range of 0.1 to 1 µM and the Emax is 250 to 500%.
`O=C([C@H](O)c1ccc(F)cc1)N1CC2=C(C1)CN(S(=O)(=O)c1ccc(C(F)(F)F)nc1)C2` [Example 18-64, (2R)-2-(4-fluorophenyl)-2-hydroxy-1-(5-{[6-(trifluoromethyl)pyridin-3-yl]sulfonyl}-1H,2H,3H,4H,5H,6H-pyrrolo[3,4-c]pyrrol-2-yl)ethan-1-one]: on PKR(G332S), the activation at 1.54 µM fell in the range of 75 to 250%, the AC50 was 1 to 40 µM and the Emax was 75 to 250%. Besides, at PKR(R510Q), the activation at 1.54 µM lay in the range of 75 to 250%, the AC50 was 1 to 40 µM and the Emax lay in the range of 75 to 250%. On PKR(wt), the activation at 1.54 µM lay within 75 to 250%, the AC50 fell in the range of 1 to 40 µM and the Emax lay within 75 to 250%.
For `O=C(N1CC2=C(C1)CN(S(=O)(=O)c1ccccn1)C2)C1(O)CC1` [Example 18-65, 1-[5-(Pyridine-2-sulfonyl)-1H,2H,3H,4H,5H,6H-pyrrolo[3,4-c]pyrrole-2-carbonyl]cyclopropan-1-ol], at PKR(G332S), the activation at 1.54 µM was in the range of 75 to 250%, the AC50 fell in the range of 1 to 40 µM and the Emax lay within 75 to 250%. Besides, at PKR(R510Q), the activation at 1.54 µM was 75 to 250%, the concentration at half-maximal activity (AC50) is 1 to 40 µM and the Emax is 75 to 250%. Further, on PKR(wt), the activation at 1.54 µM lay within 75 to 250%, the concentration at half-maximal activity (AC50) fell in the range of 1 to 40 µM and the Emax lay within 250 to 500%.
For the molecule `O=C(Cc1ccc(F)cc1F)N1CC2=C(C1)CN(S(=O)(=O)c1cccnc1)C2` [Example 18-66, 2-(2,4-Difluorophenyl)-1-[5-(pyridine-3-sulfonyl)-1H,2H,3H,4H,5H,6H-pyrrolo[3,4-c]pyrrol-2-yl]ethan-1-one], on PKR(G332S), the activation at 1.54 µM fell in the range of 75 to 250%, the AC50 was in the range of 1 to 40 µM and the Emax lay within 75 to 250%. Besides, on PKR(R510Q), the activation at 1.54 µM lay in the range of 75 to 250%, the AC50 was in the range of 1 to 40 µM and the Emax was 250 to 500%. In addition, on PKR(wt), the activation at 1.54 µM is 75 to 250%, the AC50 was 1 to 40 µM and the Emax lay within 250 to 500%.
Regarding `O=C(Cc1ccc(F)cc1F)N1CC2=C(C1)CN(S(=O)(=O)c1ccccn1)C2` [Example 18-67, 2-(2,4-Difluorophenyl)-1-[5-(pyridine-2-sulfonyl)-1H,2H,3H,4H,5H,6H-pyrrolo[3,4-c]pyrrol-2-yl]ethan-1-one], at PKR(G332S), the activation at 1.54 µM lay in the range of 75 to 250%, the AC50 was in the range of 0.1 to 1 µM and the Emax was 75 to 250%. Further, on PKR(R510Q), the activation at 1.54 µM was in the range of 75 to 250%, the AC50 lay within 1 to 40 µM and the Emax lay within 250 to 500%. At PKR(wt), the activation at 1.54 µM lay in the range of 75 to 250%, the AC50 fell in the range of 1 to 40 µM and the Emax lay within 250 to 500%.
As for `Cc1nc(CC(=O)N2CC3=C(C2)CN(S(=O)(=O)c2ccccn2)C3)cs1` [Example 18-68, 2-(2-Methyl-1,3-thiazol-4-yl)-1-[5-(pyridine-2-sulfonyl)-1H,2H,3H,4H,5H,6H-pyrrolo[3,4-c]pyrrol-2-yl]ethan-1-one], the activation at 1.54 µM at PKR(G332S), at PKR(R510Q) and on PKR(wt) was 75 to 250% each time. In addition, the AC50 on PKR(G332S) is 0.1 to 1 µM; at PKR(R510Q), 1 to 40 µM; at PKR(wt) it was 1 to 40 µM. Also, the Emax on PKR(G332S) fell in the range of 75 to 250%; at PKR(R510Q) it was 75 to 250%; on PKR(wt), 250 to 500%.
Consider `O=C([C@@H]1CCCO1)N1CC2=C(C1)CN(S(=O)(=O)c1ccccn1)C2` [Example 18-69, 2-({5-[(2S)-oxolane-2-carbonyl]-1H,2H,3H,4H,5H,6H-pyrrolo[3,4-c]pyrrol-2-yl}sulfonyl)pyridine], for which, on PKR(G332S), the activation at 1.54 µM fell in the range of 75 to 250%, the AC50 fell in the range of 1 to 40 µM and the Emax is 75 to 250%. On PKR(R510Q), the activation at 1.54 µM was in the range of 75 to 250%, the AC50 was 1 to 40 µM and the Emax is 75 to 250%. Further, on PKR(wt), the activation at 1.54 µM is 75 to 250%, the AC50 lay within 1 to 40 µM and the Emax was in the range of 75 to 250%.
Take `O=C(Cn1cnnn1)N1CC2=C(C1)CN(S(=O)(=O)c1cccnc1)C2` [Example 18-70, 1-[5-(Pyridine-3-sulfonyl)-1H,2H,3H,4H,5H,6H-pyrrolo[3,4-c]pyrrol-2-yl]-2-(1H-1,2,3,4-tetrazol-1-yl)ethan-1-one]: on PKR(G332S), the activation at 1.54 µM lay in the range of 75 to 250%, the AC50 was in the range of 1 to 40 µM and the Emax was 75 to 250%. For the same molecule, at PKR(R510Q), the activation at 1.54 µM was in the range of 75 to 250%, the AC50 lay in the range of 1 to 40 µM and the Emax fell in the range of 75 to 250%. For the same molecule, on PKR(wt), the activation at 1.54 µM was 75 to 250%, the AC50 is 1 to 40 µM and the Emax was in the range of 75 to 250%.
Regarding `O=C(Cc1ccc[nH]1)N1CC2=C(C1)CN(S(=O)(=O)c1cccnc1)C2` [Example 18-73, 1-[5-(Pyridine-3-sulfonyl)-1H,2H,3H,4H,5H,6H-pyrrolo[3,4-c]pyrrol-2-yl]-2-(1H-pyrrol-2-yl)ethan-1-one], on PKR(G332S), the activation at 1.54 µM is 75 to 250%, the AC50 is 1 to 40 µM and the Emax was 75 to 250%. Besides, at PKR(R510Q), the activation at 1.54 µM lay within 75 to 250%, the AC50 was in the range of 1 to 40 µM and the Emax was in the range of 75 to 250%. Further, on PKR(wt), the activation at 1.54 µM was 75 to 250%, the AC50 lay within 1 to 40 µM and the Emax fell in the range of 75 to 250%.
`CC[C@@H](O)C(=O)N1CC2=C(C1)CN(S(=O)(=O)c1ccc3c(c1)N(C)CCO3)C2` [Example 18-76, (2R)-2-hydroxy-1-{5-[(4-methyl-3,4-dihydro-2H-1,4-benzoxazin-6-yl)sulfonyl]-1H,2H,3H,4H,5H,6H-pyrrolo[3,4-c]pyrrol-2-yl}butan-1-one]: the activation at 1.54 µM at PKR(G332S), at PKR(R510Q) and at PKR(wt) was 75 to 250% throughout. Further, the results for the AC50 on PKR(G332S), at PKR(R510Q) and at PKR(wt) were 1 to 40 µM, 1 to 40 µM and 0.1 to 1 µM, respectively. The Emax on PKR(G332S), at PKR(R510Q) and at PKR(wt) was 75 to 250% each time.
With `O=C(NCc1cccnc1)N1CC2=C(C1)CN(S(=O)(=O)c1ccc3ncsc3c1)C2` [Example 20-56, 5-(1,3-Benzothiazole-6-sulfonyl)-N-(pyridin-3-ylmethyl)-1H,2H,3H,4H,5H,6H-pyrrolo[3,4-c]pyrrole-2-carboxamide], at PKR(G332S), the activation at 1.54 µM lay in the range of 75 to 250%, the AC50 was 0.1 to 1 µM and the Emax fell in the range of 75 to 250%. Further, on PKR(R510Q), the activation at 1.54 µM was in the range of 75 to 250%, the AC50 fell in the range of 1 to 40 µM and the Emax lay within 250 to 500%. For the same molecule, at PKR(wt), the activation at 1.54 µM lay within 75 to 250%, the AC50 fell in the range of 1 to 40 µM and the Emax was in the range of 250 to 500%.
For the molecule `COc1ccc(CNC(=O)N2CC3=C(C2)CN(S(=O)(=O)c2ccc(OC(F)F)cc2)C3)cc1` [Example 21-10, 5-[4-(Difluoromethoxy)benzenesulfonyl]-N-[(4-methoxyphenyl)methyl]-1H,2H,3H,4H,5H,6H-pyrrolo[3,4-c]pyrrole-2-carboxamide], on PKR(G332S), the activation at 1.54 µM fell in the range of 75 to 250%, the AC50 was not above 0.1 µM and the Emax fell in the range of 75 to 250%. At PKR(R510Q), the activation at 1.54 µM lay within 250 to 50000%, the AC50 was not above 0.1 µM and the Emax lay within 250 to 500%. Further, on PKR(wt), the activation at 1.54 µM is 250 to 50000%, the AC50 was not above 0.1 µM and the Emax was 250 to 500%.
`COc1cccc(CNC(=O)N2CC3=C(C2)CN(S(=O)(=O)c2ccc(OC(F)F)cc2)C3)c1` [Example 21-11, 5-[4-(Difluoromethoxy)benzenesulfonyl]-N-[(3-methoxyphenyl)methyl]-1H,2H,3H,4H,5H,6H-pyrrolo[3,4-c]pyrrole-2-carboxamide]: on PKR(G332S), the activation at 1.54 µM fell in the range of 75 to 250%, the AC50 is not above 0.1 µM and the Emax fell in the range of 75 to 250%. In addition, on PKR(R510Q), the activation at 1.54 µM was 250 to 50000%, the AC50 is not above 0.1 µM and the Emax was in the range of 250 to 500%. In addition, on PKR(wt), the activation at 1.54 µM was in the range of 250 to 50000%, the AC50 was not above 0.1 µM and the Emax fell in the range of 250 to 500%.
Turning to `COc1ccccc1CNC(=O)N1CC2=C(C1)CN(S(=O)(=O)c1ccc(OC(F)F)cc1)C2` [Example 21-12, 5-[4-(Difluoromethoxy)benzenesulfonyl]-N-[(2-methoxyphenyl)methyl]-1H,2H,3H,4H,5H,6H-pyrrolo[3,4-c]pyrrole-2-carboxamide], on PKR(G332S), the activation at 1.54 µM lay within 75 to 250%, the AC50 was not above 0.1 µM and the Emax is 75 to 250%. On PKR(R510Q), the activation at 1.54 µM lay in the range of 250 to 50000%, the AC50 lay within 0.1 to 1 µM and the Emax was 250 to 500%. For the same molecule, on PKR(wt), the activation at 1.54 µM fell in the range of 250 to 50000%, the AC50 was 0.1 to 1 µM and the Emax is 250 to 500%.
Take `O=C(NCc1ccc(F)cc1)N1CC2=C(C1)CN(S(=O)(=O)c1ccc(OC(F)F)cc1)C2` [Example 21-13, 5-[4-(Difluoromethoxy)benzenesulfonyl]-N-[(4-fluorophenyl)methyl]-1H,2H,3H,4H,5H,6H-pyrrolo[3,4-c]pyrrole-2-carboxamide]: the figures for the activation at 1.54 µM on PKR(G332S), at PKR(R510Q) and at PKR(wt) were 75 to 250%, 250 to 50000% and 250 to 50000%, respectively. For the same molecule, the results for the AC50 at PKR(G332S), at PKR(R510Q) and at PKR(wt) were not above 0.1 µM, 0.1 to 1 µM and 0.1 to 1 µM, respectively. In addition, the figures for the Emax at PKR(G332S), on PKR(R510Q) and on PKR(wt) were 75 to 250%, 250 to 500% and 250 to 500%, respectively.

The term AC50 denotes the concentration at which the activity in the assay is half-maximal.
